# Measurements reported in patent US10875898B2, “Bioactive protein, use thereof and method for its production” (Koppert B.V., priority 2014, dated 2020).
# How the values were obtained:
# Format in all cases: in vivo
# cucumber [1] = experiment: combined application of HYTLO1, HA and 6PP on cucumber seed germination and growth promotion; design: Root length, increase % vs. Control / Plant fresh weight, increase % vs. Control / Plant dry weight, increase % vs. Control / plant height, increase % vs. Control: concentration or dose not given beside the values
# Experimental: Tested metabolites include 6PP and Harzianic Acid, and experiments were performed on seed germination, stem or root elongation as well fresh/dry weight. The results shown in Table 1 were obtained by using cucumber seeds coated with the solutions of the tested compounds, that were then transferred in Petri dishes and left to germinate on filter humid paper. First seed germination was evaluated, then the germinated seedlings were transplanted into pots containing sterilised soil. Other two treatments with the purified molecules were performed at 10 days interval, by drenching the soil with the solutions at the final concentrations of 10^−7M for 6PP and HA, and 10^−8M for HYTLO1. In two-compounds application, half dose of each molecule was used. In three-compound applications, one third of the dose of each molecules was used. Each treatments consisted of 8 plants. Results were collected 30 days after seed coating. Control was produced by adding water instead of the molecule solutions. The effect of the minimal amounts of solvents eventually contained in HA and 6PP solution was preliminary tested, with no differences observed in comparison to water control. The results shown in Table 1 that all of the three tested molecules have a significant beneficial effect on seed germination and plant growth, and that they can be synergistically combined for enhanced effectiveness.
# Cucumis sativus = experiment: seed germination of cucumber on MS agar; settings: 10^−8 M in agar medium
# Experimental: (§1) FIG. 12: Effect of purified HYTLO1 on the growth of Arabidopsis (A), percentage seed germination of cucumber (B) and plantlet development of Lotus japonicus (C). A: Arabidopsis thaliana (Columbia-0: Col-0) seeds were sown in Levington's F2 compost plus sand (JFC Munro, Devon; http://www.jfcmonro.com) and chilled for 2 days at 4° C. Plants were grown under short-day conditions (10 h light) in a controlled environment chamber, at 22° C. during the day and 18° C. at night with 60% relative humidity for 5-6 weeks before transplanting. Ten ml of sterile solutions of HYTLO1 were drenched every two days at concentrations 0.072 μg/ml (0.01 μM) for one month in each pot containing 100 ml of soil and 1 Arabidopsis plant. Untreated plants were used as controls. B: Sterile cucumber seeds were placed on magenta box containing half-strength Murashige and Skoog salt (MS) medium (ICN Biomedicals) containing 1% agar and 1.5% sucrose, adjusted to pH 5.7, and vernalized for 2 days at 4° C. in the absence of light. A sterile solutions of HYTLO1 was added to the substrate at final concentration of 10^−8 M before the solidification of agar. C: The same concentration of HYTLO1 was used in the agarized medium used for the L. japonicus test. […]
# Lotus japonicus = experiment: plantlet development of Lotus japonicus; settings: 10^−8 M in agarized medium
# Experimental: as §1
# cucumber [2] = experiment: combined application of HYTLO1 and Trichoderma spp. strains on cucumber growth promotion; settings: 20 days after seed coating
# Experimental: The results are shown in Table 2 and expressed in terms of increased stem and root length or fresh/dry weight. Cucumber seeds were coated with the purified molecule solutions and/or spore suspension, transferred into Petri dishes and left to germinate on humid filter paper. Germinated seedlings were transplanted into pots containing sterilised soil. Other two treatments with the purified molecules were performed at 7 days interval, by drenching the soil with the solutions at the final concentrations of 10^−8M for HYTLO1, and 1 ml of a 10^7 spore/ml suspension per 10 ml soil. In two-compounds application, half dose of each molecule was used. Each treatments was performer on at least 8 plants, and results were collected 20 days after seed coating. This experiment confirmed the beneficial effect exerted by HYTLO1 alone and in combination with Trichoderma species on plant growth. […] In particular, and only as an example, combined treatment with T. harzianum T22+HYTLO1, and T. harzianum strain TH1+HYTLO1 determined a significant increase in plant growth promotion effect of up to 33% more compared to controls (synergistic results as by the Limpel's formula are underlined in the Table).
substance,measurement,setting,value
"HYTLO1: about 7 KDa Type II hydrophobin protein from Trichoderma longibrachiatum strain MK1, 71 aa, SEQ ID NO: 1",Plant dry weight,"cucumber [1]; 30 days after seed coating, SD +− 1.3 g",8.4 g
same,Root length (cm),"cucumber [1]; 30 days after seed coating, SD +− 2.1 cm",14.6 cm
same,Plant fresh weight,"cucumber [1]; 30 days after seed coating, SD +− 2.5 g",24.76 g
same,plant height (cm),"cucumber [1]; 30 days after seed coating, drench 10^−7M 6PP and HA, 10^−8M HYTLO1, half or one third dose in combinations, SD +− 2.5 cm",24.9 cm
same,Seed germination (24 h),"cucumber [1]; coated cucumber seeds on humid filter paper, SD +− 9%",78%
same,"Seed germination (24 h), increase % vs. Control",cucumber [1]; vs water control,+30%
same,"Plant dry weight, increase % vs. Control","cucumber [1]; vs water control, 30 days",51.2%
same,"Plant fresh weight, increase % vs. Control","cucumber [1]; vs water control, 30 days",34.1%
same,"Root length, increase % vs. Control","cucumber [1]; vs water control, 30 days",17.1%
same,growth promotion effect (percentage seed germination),Cucumis sativus,confirmed
same,growth promotion effect (plantlet development),Lotus japonicus,confirmed
same,"plant height (cm), percentage increase compared to water control","cucumber [2]; 10^−8M HYTLO1, 10^7 spore/ml, half dose in combinations, SD +− 1.5",1.8%
same,"Root length (cm), percentage increase compared to water control",cucumber [2]; SD +− 2.0,8.5%
same,"Plant fresh weight (g), percentage increase compared to water control",cucumber [2]; SD +− 2.8,4.2%
same,"Plant dry weight (g), percentage increase compared to water control",cucumber [2]; SD +− 3.1,7.3%
